Values joined by “and” are separate entries in the source; they are usually repeats but may differ in a detail not shown here. Identical values can stand only once. Toxic doses and inconclusive results are not listed.
Tested on: BDF1 mice, P388 leukemia ip, median survival T/C
Experiment: NCI In Vivo Anticancer Drug Screen. Data for tumor model P388 Leukemia (intraperitoneal) in B6D2F1 (BDF1) mice
Conditions: endpoint: median survival time, higher = longer survival
Summary of the method: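 T/C = treated-group survival ÷ vehicle-control survival; tumour transplanted into mice before dosing.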

[1] = dose: 100.0 mg/kg/injection, schedule: Q04DX003 (ip), vehicle: saline with Tween-80
[2] = dose: 200.0 mg/kg/injection, schedule: Q04DX003 (ip), vehicle: saline with Tween-80
[3] = dose: 400.0 mg/kg/injection, schedule: Q04DX003 (ip), vehicle: saline with Tween-80

COC1=C(N)C(=O)c2nc(-c3nc(C(=O)O)c(C)c(-c4ccc(OC)c(OC)c4O)c3N)ccc2C1=O
T/C (dose: 0.01 mg/kg/injection, schedule: Q01DX010 (ip), vehicle: saline): 110 % of control
T/C (dose: 0.02 mg/kg/injection, schedule: Q01DX009 (ip), vehicle: other): 118 % of control
T/C (dose: 0.03 mg/kg/injection, schedule: Q01DX009 (ip), vehicle: dioxane): 97 % of control
T/C (dose: 0.03 mg/kg/injection, schedule: Q01DX009 (ip), vehicle: saline): 114 % of control
T/C (dose: 0.04 mg/kg/injection, schedule: Q01DX009 (ip), vehicle: dioxane): 99 % of control and 100 % of control
T/C (dose: 0.05 mg/kg/injection, schedule: Q01DX009 (ip), vehicle: dioxane): 114 % of control
T/C (dose: 0.05 mg/kg/injection, schedule: Q01DX009 (ip), vehicle: saline): 161 % of control
T/C (dose: 0.05 mg/kg/injection, schedule: Q01DX010 (ip), vehicle: water): 118 % of control
T/C (dose: 0.05 mg/kg/injection, schedule: Q04DX002 (ip), vehicle: saline): 112 % of control
T/C (dose: 0.06 mg/kg/injection, schedule: Q01DX009 (ip), vehicle: dioxane): 114 % of control
T/C (dose: 0.1 mg/kg/injection, schedule: Q01DX009 (ip), vehicle: saline): 152 % of control
T/C (dose: 0.1 mg/kg/injection, schedule: Q01DX010 (ip), vehicle: saline): 118 % of control
T/C (dose: 0.1 mg/kg/injection, schedule: Q04DX003 (ip), vehicle: other): 118 % of control
T/C (dose: 0.13 mg/kg/injection, schedule: Q01DX009 (oral), vehicle: other): 109 % of control
T/C (dose: 0.2 mg/kg/injection, schedule: Q01DX001 (ip), vehicle: other): 118 % of control
T/C (dose: 0.2 mg/kg/injection, schedule: Q01DX010 (ip), vehicle: water): 118 % of control
T/C (dose: 0.2 mg/kg/injection, schedule: Q04DX002 (ip), vehicle: saline): 114 % of control
T/C (dose: 0.2 mg/kg/injection, schedule: Q04DX003 (ip), vehicle: other): 118 % of control
T/C (dose: 0.2 mg/kg/injection, schedule: Q08DX002 (ip), vehicle: other): 118 % of control
T/C (dose: 0.25 mg/kg/injection, schedule: Q01DX009 (oral), vehicle: other): 109 % of control
T/C (dose: 0.4 mg/kg/injection, schedule: Q01DX001 (ip), vehicle: other): 118 % of control
T/C (dose: 0.5 mg/kg/injection, schedule: Q01DX001 (ip), vehicle: other): 122 % of control
T/C (dose: 0.5 mg/kg/injection, schedule: Q01DX009 (oral), vehicle: other): 109 % of control
T/C (dose: 0.5 mg/kg/injection, schedule: Q03HX008 (ip), vehicle: other): 109 % of control
T/C (dose: 0.5 mg/kg/injection, schedule: Q04DX003 (ip), vehicle: other): 116 % of control
T/C (dose: 0.8 mg/kg/injection, schedule: Q01DX001 (ip), vehicle: other): 113 % of control
T/C (dose: 0.8 mg/kg/injection, schedule: Q01DX009 (ip), vehicle: saline): 117 % of control
T/C (dose: 0.8 mg/kg/injection, schedule: Q04DX003 (ip), vehicle: other): 118 % of control
T/C (dose: 0.8 mg/kg/injection, schedule: Q08DX002 (ip), vehicle: other): 109 % of control
T/C (dose: 1.0 mg/kg/injection, schedule: Q01DX001 (ip), vehicle: other): 109 % of control
T/C (dose: 1.0 mg/kg/injection, schedule: Q01DX001 (oral), vehicle: other): 118 % of control
T/C (dose: 1.0 mg/kg/injection, schedule: Q01DX009 (oral), vehicle: other): 100 % of control
T/C (dose: 1.0 mg/kg/injection, schedule: Q03HX008 (ip), vehicle: other): 109 % of control
T/C (dose: 1.0 mg/kg/injection, schedule: Q08DX002 (ip), vehicle: other): 100 % of control
T/C (dose: 2.0 mg/kg/injection, schedule: Q01DX001 (oral), vehicle: other): 100 % of control
T/C (dose: 2.0 mg/kg/injection, schedule: Q01DX009 (oral), vehicle: other): 95 % of control
T/C (dose: 4.0 mg/kg/injection, schedule: Q01DX001 (oral), vehicle: other): 95 % of control
T/C (dose: 31.2 micrograms/kg/injection, schedule: Q01DX009 (ip), vehicle: other): 116 % of control
T/C (dose: 62.5 micrograms/kg/injection, schedule: Q03HX016 (ip), vehicle: other): 116 % of control
T/C (dose: 62.5 micrograms/kg/injection, schedule: Q03HX024 (ip), vehicle: other): 116 % of control
T/C (dose: 125.0 micrograms/kg/injection, schedule: Q03HX016 (ip), vehicle: other): 100 % of control
T/C (dose: 125.0 micrograms/kg/injection, schedule: Q03HX024 (ip), vehicle: other): 91 % of control
T/C (dose: 250.0 micrograms/kg/injection, schedule: Q01DX009 (ip), vehicle: other): 116 % of control
T/C (dose: 667.0 micrograms/kg/injection, schedule: Q04DX003 (ip), vehicle: alkali diluted with saline): 120 % of control

CC(Br)C(=O)NC(Cc1ccccc1)C(=O)O (stereo not drawn)
T/C (dose: 100.0 mg/kg/injection, schedule: Q01DX009 (ip), vehicle: saline): 95 % of control
T/C (dose: 100.0 mg/kg/injection, schedule: Q04DX003 (ip), vehicle: alcohol): 100 % of control
T/C [1]: 118 % of control
T/C (dose: 200.0 mg/kg/injection, schedule: Q01DX009 (ip), vehicle: saline): 100 % of control
T/C (dose: 200.0 mg/kg/injection, schedule: Q04DX003 (ip), vehicle: alcohol): 104 % of control
T/C [2]: 100 % of control
T/C (dose: 400.0 mg/kg/injection, schedule: Q01DX009 (ip), vehicle: saline): 104 % of control
T/C (dose: 400.0 mg/kg/injection, schedule: Q04DX003 (ip), vehicle: alcohol): 109 % of control
T/C [3]: 109 % of control

CS(=O)(=O)OCCN(CCOS(C)(=O)=O)c1cccc(C(F)(F)F)c1
T/C (dose: 33.0 mg/kg/injection, schedule: Q04DX003 (ip), vehicle: saline with Tween-80): 155 % of control and 168 % of control
T/C (dose: 50.0 mg/kg/injection, schedule: Q04DX003 (ip), vehicle: saline with Tween-80): 170 % of control and 190 % of control
T/C (dose: 75.0 mg/kg/injection, schedule: Q04DX003 (ip), vehicle: saline with Tween-80): 236 % of control and 190 % of control

CN(C)c1ccc(C=O)cc1Br
T/C (dose: 50.0 mg/kg/injection, schedule: Q01DX009 (ip), vehicle: Klucel (hydroxypropylcellulose) (HPC)): 95 % of control
T/C (dose: 100.0 mg/kg/injection, schedule: Q01DX009 (ip), vehicle: Klucel (hydroxypropylcellulose) (HPC)): 95 % of control
T/C (dose: 100.0 mg/kg/injection, schedule: Q04DX003 (ip), vehicle: Klucel (hydroxypropylcellulose) (HPC)): 100 % of control
T/C (dose: 200.0 mg/kg/injection, schedule: Q01DX009 (ip), vehicle: Klucel (hydroxypropylcellulose) (HPC)): 100 % of control
T/C (dose: 200.0 mg/kg/injection, schedule: Q04DX003 (ip), vehicle: Klucel (hydroxypropylcellulose) (HPC)): 100 % of control
T/C (dose: 400.0 mg/kg/injection, schedule: Q04DX003 (ip), vehicle: Klucel (hydroxypropylcellulose) (HPC)): 100 % of control

COc1ccc(C(C)c2ccccc2)cc1C(C)c1ccccc1 (stereo not drawn)
T/C [1]: 109 % of control
T/C [2]: 90 % of control
T/C [3]: 100 % of control

CC(C)CC(=O)CC1(C)CCC(c2ccoc2)O1 (stereo not drawn)
T/C (dose: 25.0 mg/kg/injection, schedule: Q01DX009 (ip), vehicle: saline with Tween-80): 96 % of control and 100 % of control
T/C (dose: 50.0 mg/kg/injection, schedule: Q01DX009 (ip), vehicle: saline with Tween-80): 97 % of control and 105 % of control
T/C (dose: 100.0 mg/kg/injection, schedule: Q01DX009 (ip), vehicle: saline with Tween-80): 103 % of control and 110 % of control
T/C (dose: 200.0 mg/kg/injection, schedule: Q01DX009 (ip), vehicle: saline with Tween-80): 117 % of control

CC(=O)OC1C(C=C(C)C)OC2CC3(C)C4=C(CCC3(C)C2C1C)C1(C)CCC(O)C(C)(C)C1CC4 (stereo not drawn)
T/C (dose: 50.0 mg/kg/injection, schedule: Q01DX010 (sc), vehicle: steriod suspending solution): 90 % of control
T/C (dose: 100.0 mg/kg/injection, schedule: Q01DX010 (sc), vehicle: steriod suspending solution): 90 % of control
T/C (dose: 200.0 mg/kg/injection, schedule: Q01DX010 (sc), vehicle: steriod suspending solution): 90 % of control
T/C (dose: 400.0 mg/kg/injection, schedule: Q01DX010 (sc), vehicle: steriod suspending solution): 86 % of control
